In the supplement of paper PMC11061612:

Legend:
Test in all cases: Bliss excess, mean over the matrix (fraction); higher = more synergy
[1] = system: BPH-1 (Non-Cancerous)
Outline: (§1)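 Cell lines grown in DMEM/F12 or RPMI with 10% FBS were plated in 1536-well plates and held 24 hours at 37°C, 5% CO2 before 72 hours of exposure to two-drug dose matrices, with DMSO typically at 0.2%. CellTiter-Glo 2.0 luminescence gave viability, which was converted to inhibition. Vehicle wells were set to 0 and blank wells to 1. Combination Emax is the second-highest inhibition in the matrix, and Bliss excess is the observed combination effect minus the expected EA + EB − EA·EB, where EA and EB are the single-agent effects.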

[2] = system: CAL-72 (Osteosarcoma)
Outline: as §1

[3] = system: TGBC1TKB (Biliary Tract Carcinoma)
Outline: as §1

[4] = system: WSU-NHL (B-Cell Non-Hodgkin's Lymphoma)
Outline: as §1

[5] = system: KS-1 (Glioblastoma)
Outline: as §1

[6] = system: Detroit562 (Head and Neck Carcinoma)
Outline: as §1

[7] = system: Hs-746T (Gastric Carcinoma)
Outline: as §1

[8] = system: LCLC-97TM1 (Non-Small Cell Lung Carcinoma)
Outline: as §1

[9] = system: ALL-PO (B-Lymphoblastic Leukemia)
Outline: as §1

[10] = system: CAL-33 (Oral Cavity Carcinoma)
Outline: as §1

[11] = system: EW-11 (Ewing's Sarcoma)
Outline: as §1

[12] = system: A673 (Ewing's Sarcoma)
Outline: as §1

[13] = system: HuH-7 (Hepatocellular Carcinoma)
Outline: as §1

[14] = system: BE2-M17 (Neuroblastoma)
Outline: as §1

[15] = system: YAPC (Pancreatic Carcinoma)
Outline: as §1

[16] = system: NCI-H524 (Small Cell Lung Carcinoma)
Outline: as §1

[17] = system: NCI-H2722 (Mesothelioma)
Outline: as §1

[18] = system: ESS-1 (Other Solid Carcinomas)
Outline: as §1

[19] = system: NCI-H1568 (Lung Adenocarcinoma)
Outline: as §1

[20] = system: OE21 (Esophageal Squamous Cell Carcinoma)
Outline: as §1

SMILES	Bliss excess [1]	Bliss excess [2]	Bliss excess [3]	Bliss excess [4]	Bliss excess [5]	Bliss excess [6]	Bliss excess [7]	Bliss excess [8]	Bliss excess [9]	Bliss excess [10]	Bliss excess [11]	Bliss excess [12]	Bliss excess [13]	Bliss excess [14]	Bliss excess [15]	Bliss excess [16]	Bliss excess [17]	Bliss excess [18]	Bliss excess [19]	Bliss excess [20]
CN(CCO)CC[C@H](CSc1ccccc1)Nc1ccc(S(=O)(=O)NC(=O)c2ccc(N3CCC([C@@H](O)c4ccccc4-c4ccc(Cl)cc4)CC3)cc2)cc1S(=O)(=O)C(F)(F)F [AZD4320] + C=CCn1c(=O)c2cnc(Nc3ccc(N4CCN(C)CC4)cc3)nc2n1-c1cccc(C(C)(C)O)n1 [AZD1775] (first compound max 1 µM, partner max 1 µM)	0.0378	0.0392	0.0352	-0.0242	0.0327	-0.0067	-0.0054	0.0015	0.0631	-0.0266	0.091	0.082	0.0346	0.0199	-0.0482	0.055	0.042	0.002	0.0492	–
Cc1c2c(nn1C)CSCc1cc(n(C)n1)CSc1cc(c3ccccc3c1)OCCCc1c(C(=O)O)n(C)c3c-2c(Cl)ccc13 [AZD5991] + CC(=O)O[C@H]1C(=O)[C@@]2(C)[C@H]([C@H](OC(=O)c3ccccc3)[C@]3(O)C[C@H](OC(=O)[C@H](O)[C@@H](NC(=O)c4ccccc4)c4ccccc4)C(C)=C1C3(C)C)[C@]1(OC(C)=O)CO[C@@H]1C[C@@H]2O [Paclitaxel] (first compound max 1 µM, 7x7, partner max 3 µM)	–	-0.0853	-0.0892	-0.0565	-0.0057	–	–	–	–	–	0.0039	0.0296	–	–	0.0224	-0.0264	–	0.0341	–	–
C[C@@H](Oc1cc(-c2cnn(C3CCNCC3)c2)cnc1N)c1c(Cl)ccc(F)c1Cl [Crizotinib] + Cn1cnc2c(F)c(Nc3ccc(Br)cc3Cl)c(C(=O)NOCCO)cc21 [Selumetinib] (first compound max 10 µM, 7x7, partner max 10 µM)	–	-0.0411	-0.0534	-0.0382	0.0483	–	–	–	–	–	-0.0627	-0.0206	–	–	-0.0319	-0.0449	–	-0.0634	–	–
C[C@@H]1COCCN1c1cc(C2([S@](C)(=N)=O)CC2)nc(-c2ccnc3[nH]ccc23)n1 [AZD6738] + C1CC(C1)(C(=O)[O-])C(=O)[O-].N.N.[Pt+2] [Carboplatin] (first compound max 10 µM, 7x7, partner max 10 µM)	–	-0.063	-0.0375	-0.054	-0.0536	–	–	–	–	–	-0.041	0.0216	–	–	-0.0227	-0.0512	–	0.0196	–	–
C=CCn1c(=O)c2cnc(Nc3ccc(N4CCN(C)CC4)cc3)nc2n1-c1cccc(C(C)(C)O)n1 [AZD1775] + CCc1c2c(nc3ccc(O)cc13)-c1cc3c(c(=O)n1C2)COC(=O)[C@]3(O)CC [SN-38] (first compound max 1 µM, partner max 0.3 µM)	–	0.017	-0.0491	-0.0306	-0.0389	–	–	–	–	–	-0.113	-0.0188	–	–	-0.0599	-0.0355	–	-0.0011	–	–
CS(=O)(=O)CCNCc1ccc(-c2ccc3ncnc(Nc4ccc(OCc5cccc(F)c5)c(Cl)c4)c3c2)o1 [Lapatinib] + NC1(c2ccc(-c3nc4ccn5c(=O)[nH]nc5c4cc3-c3ccccc3)cc2)CCC1 [MK-2206] (first compound max 10 µM, 7x7, partner max 10 µM)	–	0.0288	0.0079	-0.0237	-0.0185	–	–	–	–	–	-0.0003	-0.064	–	–	0.0208	0.0223	–	0.005	–	–
C[C@@H](Nc1cc(F)cc(F)c1)c1cc(C(=O)N(C)C)cc2c(=O)cc(N3CCOCC3)oc12 [AZD8186] + CC(=O)c1c(C)c2cnc(Nc3ccc(N4CCNCC4)cn3)nc2n(C2CCCC2)c1=O [Palbociclib] (first compound max 10 µM, 7x7, partner max 10 µM)	–	0.0075	0.0239	-0.0144	0.0069	–	–	–	–	–	-0.0053	0.0743	–	–	-0.0101	-0.0531	–	-0.0114	–	–
O=C(c1cc(Cc2n[nH]c(=O)c3ccccc23)ccc1F)N1CCN(C(=O)C2CC2)CC1 [Olaparib] + Cc1c2c(nn1C)CSCc1cc(n(C)n1)CSc1cc(c3ccccc3c1)OCCCc1c(C(=O)O)n(C)c3c-2c(Cl)ccc13 [AZD5991] (first compound max 10 µM, 7x7, partner max 1 µM)	–	-0.0242	-0.0334	0.0217	-0.0463	–	–	–	–	–	-0.0175	-0.0566	–	–	-0.0367	0.0147	–	-0.0255	–	–
O=C(c1cc(Cc2n[nH]c(=O)c3ccccc23)ccc1F)N1CCN(C(=O)C2CC2)CC1 [Olaparib] + CC1(C)CCC(CN2CCN(c3ccc(C(=O)NS(=O)(=O)c4ccc(NCC5CCOCC5)c([N+](=O)[O-])c4)c(Oc4cnc5[nH]ccc5c4)c3)CC2)=C(c2ccc(Cl)cc2)C1 [Venetoclax] (first compound max 10 µM, 7x7, partner max 1 µM)	–	-0.0215	-0.0666	0.0238	-0.0442	–	–	–	–	–	0.0371	0.0169	–	–	-0.0282	-0.0173	–	-0.0103	–	–
CCc1c2c(nc3ccc(O)cc13)-c1cc3c(c(=O)n1C2)COC(=O)[C@]3(O)CC [SN-38] + O=C(c1cc(Cc2n[nH]c(=O)c3ccccc23)ccc1F)N1CCN(C(=O)C2CC2)CC1 [Olaparib] (first compound max 0.3 µM, 7x7, partner max 10 µM)	0.0501	0.113	0.0009	0.044	0.0068	–	–	–	0.0576	0.0519	-0.0291	0.0875	–	0.0082	0.0336	0.0488	0.0188	0.0735	–	-0.0198
C[C@@H]1COCCN1c1cc(C2([S@](C)(=N)=O)CC2)nc(-c2ccnc3[nH]ccc23)n1 [AZD6738] + Nc1ccn([C@@H]2O[C@H](CO)[C@@H](O)C2(F)F)c(=O)n1 [Gemcitabine] (first compound max 10 µM, 7x7, partner max 0.3 µM)	–	0.0282	0.0524	0.014	0.0043	–	–	–	–	–	-0.0094	0.0144	–	–	0.0296	0.0064	–	0.0734	–	–
O=C(c1cc(Cc2n[nH]c(=O)c3ccccc23)ccc1F)N1CCN(C(=O)C2CC2)CC1 [Olaparib] + COc1nnc2ccc(N3CCC(c4ccc(OCCN5CCN(C)C(=O)[C@H]5C)cc4)CC3)nn12 [AZD5153] (first compound max 10 µM, 7x7, partner max 1 µM)	–	-0.0056	-0.0322	-0.06	-0.0205	–	–	–	–	–	-0.0063	-0.077	–	–	-0.0239	-0.0532	–	-0.0139	–	–
O=C(c1cc(Cc2n[nH]c(=O)c3ccccc23)ccc1F)N1CCN(C(=O)C2CC2)CC1 [Olaparib] + CN(CC[C@H](CSC1=CC=CC=C1)NC2=C(C=C(C=C2)S(=O)(=O)NC(=O)C3=CC=C(C=C3)N4CCC(CC4)[C@H](C5=CC=CC=C5C6=CC=C(C=C6)Cl)O)S(=O)(=O)C(F)(F)F)CCO [AZD4320] (first compound max 10 µM, 7x7, partner max 1 µM)	–	-0.0332	-0.049	0.0345	-0.041	–	–	–	–	–	0.0141	0.0265	–	–	-0.0169	0.0085	–	0.0825	–	–
CC1(C)CCC(CN2CCN(c3ccc(C(=O)NS(=O)(=O)c4ccc(NCC5CCOCC5)c([N+](=O)[O-])c4)c(Oc4cnc5[nH]ccc5c4)c3)CC2)=C(c2ccc(Cl)cc2)C1 [Venetoclax] + CS(=O)(=O)CCNCc1ccc(-c2ccc3ncnc(Nc4ccc(OCc5cccc(F)c5)c(Cl)c4)c3c2)o1 [Lapatinib] (first compound max 1 µM, 7x7, partner max 10 µM)	–	-0.0527	-0.0308	0.0482	-0.0411	–	–	–	–	–	0.0195	-0.0426	–	–	-0.012	-0.0393	–	0.0298	–	–
C[C@@H](Nc1cc(F)cc(F)c1)c1cc(C(=O)N(C)C)cc2c(=O)cc(N3CCOCC3)oc12 [AZD8186] + C1CN(CCC1(C(=O)N[C@@H](CCO)C2=CC=C(C=C2)Cl)N)C3=NC=NC4=C3C=CN4 [AZD5363] (first compound max 10 µM, 7x7, partner max 10 µM)	–	-0.0293	0.0539	-0.0018	-0.0233	–	–	–	–	–	-0.0265	0.0084	–	–	-0.0214	-0.0342	–	-0.0165	–	–
C[C@@H](Oc1cc(-c2cnn(C3CCNCC3)c2)cnc1N)c1c(Cl)ccc(F)c1Cl [Crizotinib] + CC1=C(C(=CC=C1)Cl)NC(=O)C2=CN=C(S2)NC3=CC(=NC(=N3)C)N4CCN(CC4)CCO [Dasatinib] (first compound max 10 µM, 7x7, partner max 2 µM)	–	0.0078	0.0435	0.0202	0.0499	–	–	–	–	–	-0.0571	-0.0281	–	–	0.0219	-0.0264	–	0.062	–	–
Cc1c2c(nn1C)CSCc1cc(n(C)n1)CSc1cc(c3ccccc3c1)OCCCc1c(C(=O)O)n(C)c3c-2c(Cl)ccc13 [AZD5991] + CC1(C)CCC(CN2CCN(c3ccc(C(=O)NS(=O)(=O)c4ccc(NCC5CCOCC5)c([N+](=O)[O-])c4)c(Oc4cnc5[nH]ccc5c4)c3)CC2)=C(c2ccc(Cl)cc2)C1 [Venetoclax] (first compound max 1 µM, 7x7, partner max 1 µM)	-0.0148	0.0676	-0.0252	0.0602	-0.0307	-0.0119	-0.0882	-0.023	–	0.0122	0.144	0.0666	-0.0272	0.0276	-0.0318	0.0725	-0.0733	-0.0082	-0.0334	0.0182
CS(=O)(=O)CCNCc1ccc(-c2ccc3ncnc(Nc4ccc(OCc5cccc(F)c5)c(Cl)c4)c3c2)o1 [Lapatinib] + Cn1cnc2c(F)c(Nc3ccc(Br)cc3Cl)c(C(=O)NOCCO)cc21 [Selumetinib] (first compound max 10 µM, 7x7, partner max 10 µM)	–	-0.0254	0.034	-0.0093	-0.0387	–	–	–	–	–	-0.0259	-0.039	–	–	0.0037	-0.0534	–	-0.0075	–	–
